From patent US8771665B2 (Cocrystal Discovery, Inc., priority 2010, dated 2014)

How the values were obtained:
[1] = target: T1, HCV1b NS5B polymerase delta 21 (Hepatitis C virus genotype 1b, UniProt P26663); assay: RNA-Dependent RNA HCV NS5B (Polymerase) Assay and IC50 Determination; format: biochemical
T1 construct: purified HCV1b NS5B polymerase delta 21
Summary of the method: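 Purified NS5B Δ21 (0.6 μg) with polyA:U16 template, 10 μM UTP plus α-32P UTP in Tris-HCl pH 7.5, 5 mM MgCl2, 0.5% Triton X-100, 60 min at 23°C with varied compound concentrations. Radiolabelled RNA captured on filters, quantified by phosphorimaging; IC50 from triplicate assays.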

[2] = system: HCV1b replicon; assay: HCV Replicon Assay and EC50 Determination (Huh-7 cells, luciferase reporter); format: cell-based; details: Hepatitis C virus; Huh-7 cell line with HCV1b replicon containing luciferase reporter, 72 hr, triplicate assays
Experimental: HCV Replicon Assay and EC50 Determination
The antiviral activity of compounds against hepatitis C virus was determined by a hepatitis C virus replicon reporter cell line developed by Bartenschlager (Lohmann et al., Science 1999, 285:110-113). This cell-based assay utilized a liver cell carcinoma (Huh-7) cell line stably transformed with an HCV1b replicon containing a luciferase reporter gene. Varied concentrations of compounds were added to the reporter cell line, and further incubated at 37° C. for 72 hr in DMEM supplemented with 10% FCS. The inhibitory effects of experimental compounds or the reference compound, interferon alpha (INFα), on HCV replication were measured by luciferase activity using the Britelite™ plus luminescence reporter gene kit (Perkin Elmer, Shelton, Conn.). The Britelite plus reagent was added to the 96-well plates containing the HCV reporter cells, and luminescence was measured within 15 min using a Wallac 1450 Microbeta® Trilux liquid scintillation counter. EC50 values were calculated using GraFit 6 and GraphPad Prism 5 from triplicate HCV replicon assays.

T1 sequence (P26663 2420-2989): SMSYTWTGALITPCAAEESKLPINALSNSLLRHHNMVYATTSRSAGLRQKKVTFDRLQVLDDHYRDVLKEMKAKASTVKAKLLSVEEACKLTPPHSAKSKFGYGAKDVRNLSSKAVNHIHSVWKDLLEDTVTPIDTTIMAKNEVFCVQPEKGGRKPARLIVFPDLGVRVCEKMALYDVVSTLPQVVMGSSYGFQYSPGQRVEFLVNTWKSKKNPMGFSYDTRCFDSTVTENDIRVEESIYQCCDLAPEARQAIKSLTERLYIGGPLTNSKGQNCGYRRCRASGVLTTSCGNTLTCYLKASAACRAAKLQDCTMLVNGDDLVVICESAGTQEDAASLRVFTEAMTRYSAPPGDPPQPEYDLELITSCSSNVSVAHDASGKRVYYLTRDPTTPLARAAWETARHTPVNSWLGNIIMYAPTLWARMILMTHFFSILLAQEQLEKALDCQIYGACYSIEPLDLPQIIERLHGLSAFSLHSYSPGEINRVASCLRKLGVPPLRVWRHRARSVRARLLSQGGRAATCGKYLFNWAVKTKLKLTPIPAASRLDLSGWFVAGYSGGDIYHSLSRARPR

| SMILES | IC50 [1] | EC50 [2] |
| --- | --- | --- |
| CC1CCC(C2=C(c3cc(-c4ccccc4)sc3C(=O)O)CCN(C)C2)CC1 (stereo not drawn) [Example 001, 3-[1-Methyl-5-(4-methyl-cyclohexyl)-1,2,3,6-tetrahydro-pyridin-4-yl]-5-phenyl-thiophene-2-carboxylic acid] | < 3 µM | < 3000 nM |
| CC1CCC(C2=C(c3cc(C#CC(C)(C)C)sc3C(=O)O)CCN(C)C2)CC1 (stereo not drawn) [Example 003, 5-(3,3-Dimethyl-but-1-ynyl)-3-[1-methyl-5-(4-methyl-cyclohexyl)-1,2,3,6-tetrahydro-pyridin-4-yl]-thiophene-2-carboxylic acid] | < 3 µM | < 3000 nM |
| CC1CCC(C2=C(c3cc(-c4ccc(-c5cc6ncccn6n5)cc4)sc3C(=O)O)CCN(C)C2)CC1 (stereo not drawn) [Example 005, 3-[1-Methyl-5-(4-methyl-cyclohexyl)-1,2,3,6-tetrahydro-pyridin-4-yl]-5-(4-pyrazolo[1,5-a]pyrimidin-2-yl-phenyl)-thiophene-2-carboxylic acid] | < 3 µM | < 3000 nM |
| CC1CCC(C2=C(c3cc(-c4ccc(NC(=O)c5cscn5)cc4)sc3C(=O)O)CCN(C)C2)CC1 (stereo not drawn) [Example 013, 3-[1-Methyl-5-(4-methyl-cyclohexyl)-1,2,3,6-tetrahydro-pyridin-4-yl]-5-{4-[(thiazole-4-carbonyl)-amino]-phenyl}-thiophene-2-carboxylic acid] | < 3 µM | < 3000 nM |
| CC1CC=C(C2=C(c3cc(-c4ccccc4)sc3C(=O)O)CCN(C)C2)CC1 (stereo not drawn) [Example 109, 3-[1-Methyl-5-(4-methyl-cyclohex-1-enyl)-1,2,3,6-tetrahydro-pyridin-4-yl]-5-phenyl-thiophene-2-carboxylic acid] | < 3 µM | > 10000 nM |
| Cc1cc(C)n2nc(CN3CCC(c4cc(-c5ccc(NC(=O)c6cscn6)cc5)sc4C(=O)O)=C(C4CCC(C)CC4)C3)nc2n1 (stereo not drawn) [Example 130, 3-[1-(5,7-Dimethyl-[1,2,4]triazolo[1,5-a]pyrimidin-2-ylmethyl)-5-(4-methyl-cyclohexyl)-1,2,3,6-tetrahydro-pyridin-4-yl]-5-{4-[(thiazole-4-carbonyl)-amino]-phenyl}-thiophene-2-carboxylic acid] | < 3 µM | < 3000 nM |
| CC1CCC(C2=C(c3cc(-c4cc(F)c(NC(=O)c5cscn5)cc4F)sc3C(=O)O)CCN(C)C2)CC1 (stereo not drawn) [Example 160, 5-{2,5-Difluoro-4-[(thiazole-4-carbonyl)-amino]-phenyl}-3-[1-methyl-5-(4-methyl-cyclohexyl)-1,2,3,6-tetrahydro-pyridin-4-yl]-thiophene-2-carboxylic acid] | < 3 µM | – |
| Cc1cc(C)n2nc(-c3ccc(-c4cc(C5=C(C6CCC(C)CC6)CN(C)CC5)c(C(=O)O)s4)cc3)cc2n1 (stereo not drawn) [Example 161, 5-[4-(5,7-Dimethyl-pyrazolo[1,5-a]pyrimidin-2-yl)-phenyl]-3-[1-methyl-5-(4-methyl-cyclohexyl)-1,2,3,6-tetrahydro-pyridin-4-yl]-thiophene-2-carboxylic acid] | 3 to 10 µM | – |
| Cc1ccnc2cc(-c3ccc(-c4cc(C5=C(C6CCC(C)CC6)CN(C)CC5)c(C(=O)O)s4)cc3)nn12 (stereo not drawn) [Example 162, 3-[1-Methyl-5-(4-methyl-cyclohexyl)-1,2,3,6-tetrahydro-pyridin-4-yl]-5-[4-(7-methyl-pyrazolo[1,5-a]pyrimidin-2-yl)-phenyl]-thiophene-2-carboxylic acid] | < 3 µM | – |
| Cc1cnc2cc(-c3ccc(-c4cc(C5=C(C6CCC(C)CC6)CN(C)CC5)c(C(=O)O)s4)cc3)nn2c1 (stereo not drawn) [Example 163, 3-[1-Methyl-5-(4-methyl-cyclohexyl)-1,2,3,6-tetrahydro-pyridin-4-yl]-5-[4-(6-methyl-pyrazolo[1,5-a]pyrimidin-2-yl)-phenyl]-thiophene-2-carboxylic acid] | 3 to 10 µM | – |
| CC1CCC(C2=C(c3cc(-c4ccc(-c5cn6ncccc6n5)cc4)sc3C(=O)O)CCN(C)C2)CC1 (stereo not drawn) [Example 164, 5-(4-Imidazo[1,2-b]pyridazin-2-yl-phenyl)-3-[1-methyl-5-(4-methyl-cyclohexyl)-1,2,3,6-tetrahydro-pyridin-4-yl]-thiophene-2-carboxylic acid] | 3 to 10 µM | – |
| CC1CCC(C2=C(c3cc(-c4ccc(-n5cc6ncccc6n5)cc4)sc3C(=O)O)CCN(C)C2)CC1 (stereo not drawn) [Example 165, 3-[1-Methyl-5-(4-methyl-cyclohexyl)-1,2,3,6-tetrahydro-pyridin-4-yl]-5-(4-pyrazolo[4,3-b]pyridin-2-yl-phenyl)-thiophene-2-carboxylic acid] | < 3 µM | – |
| CC1CCC(C2=C(c3cc(-c4cc(F)c(NC(=O)c5cscn5)c(F)c4)sc3C(=O)O)CCN(C)C2)CC1 (stereo not drawn) [Example 166, 5-{3,5-Difluoro-4-[(thiazole-4-carbonyl)-amino]-phenyl}-3-[1-methyl-5-(4-methyl-cyclohexyl)-1,2,3,6-tetrahydro-pyridin-4-yl]-thiophene-2-carboxylic acid] | < 3 µM | – |
| CC1CCC(C2=C(c3cc(-c4ccc(NC(=O)c5cscn5)cc4)sc3C(=O)O)CN(C)CC2)CC1 (stereo not drawn) [Example 167, 3-[1-Methyl-4-(4-methyl-cyclohexyl)-1,2,5,6-tetrahydro-pyridin-3-yl]-5-{4-[(thiazole-4-carbonyl)-amino]-phenyl}-thiophene-2-carboxylic acid] | < 3 µM | – |
| CC1CCC(C2=C(c3cc(C#CC(C)(C)C)sc3C(=O)O)CCN(CCO)C2)CC1 (stereo not drawn) [Example 168, 5-(3,3-Dimethyl-but-1-ynyl)-3-[1-(2-hydroxy-ethyl)-5-(4-methyl-cyclohexyl)-1,2,3,6-tetrahydro-pyridin-4-yl]-thiophene-2-carboxylic acid] | < 3 µM | – |
| CC1CCC(C2=C(c3cc(-c4ccc(-c5cc6ncccn6n5)cc4)sc3C(=O)O)CN(C)CC2)CC1 (stereo not drawn) [Example 169, 3-[1-Methyl-4-(4-methyl-cyclohexyl)-1,2,5,6-tetrahydro-pyridin-3-yl]-5-(4-pyrazolo[1,5-a]pyrimidin-2-yl-phenyl)-thiophene-2-carboxylic acid] | < 3 µM | – |
| CC1CCC(C2=C(c3cc(C#CC(C)(C)C)sc3C(=O)O)CN(C(=O)CO)CC2)CC1 (stereo not drawn) [Example 170, 5-(3,3-Dimethyl-but-1-ynyl)-3-[1-(2-hydroxy-acetyl)-4-(4-methyl-cyclohexyl)-1,2,5,6-tetrahydro-pyridin-3-yl]-thiophene-2-carboxylic acid] | 3 to 10 µM | – |
| CC1CCC(C2=C(c3cc(I)sc3C(=O)O)CNCC2)CC1 (stereo not drawn) [Example 171, 5-Iodo-3-[4-(4-methyl-cyclohexyl)-1,2,5,6-tetrahydro-pyridin-3-yl]-thiophene-2-carboxylic acid] | > 10 µM | – |
| CC1CCC(C2=C(c3cc(C#CC4(C)CC4)sc3C(=O)O)CCN(C)C2)CC1 (stereo not drawn) [Example 172, 5-(1-Methyl-cyclopropylethynyl)-3-[1-methyl-5-(4-methyl-cyclohexyl)-1,2,3,6-tetrahydro-pyridin-4-yl]-thiophene-2-carboxylic acid] | < 3 µM | – |
| CC1CCC(C2=C(c3cc(C#CC4(c5ccccc5)CC4)sc3C(=O)O)CCN(C)C2)CC1 (stereo not drawn) [Example 173, 3-[1-Methyl-5-(4-methyl-cyclohexyl)-1,2,3,6-tetrahydro-pyridin-4-yl]-5-(1-phenyl-cyclopropylethynyl)-thiophene-2-carboxylic acid] | > 10 µM | – |
| CC1CCC(C2=C(c3cc(C#CC4(Cc5ccccc5)CC4)sc3C(=O)O)CCN(C)C2)CC1 (stereo not drawn) [Example 174, 5-(1-Benzyl-cyclopropylethynyl)-3-[1-methyl-5-(4-methyl-cyclohexyl)-1,2,3,6-tetrahydro-pyridin-4-yl]-thiophene-2-carboxylic acid] | > 10 µM | – |
| CC1CCC(C2=C(c3cc(C#CC4CC4)sc3C(=O)O)CN(C)CC2)CC1 (stereo not drawn) [Example 175, 5-Cyclopropylethynyl-3-[1-methyl-4-(4-methyl-cyclohexyl)-1,2,5,6-tetrahydro-pyridin-3-yl]-thiophene-2-carboxylic acid] | < 3 µM | – |
| CC1CCC(C2=C(c3cc(C#CC4CCCC4)sc3C(=O)O)CN(C)CC2)CC1 (stereo not drawn) [Example 176, 5-Cyclopentylethynyl-3-[1-methyl-4-(4-methyl-cyclohexyl)-1,2,5,6-tetrahydro-pyridin-3-yl]-thiophene-2-carboxylic acid] | < 3 µM | – |
| CCCC(C)C#Cc1cc(C2=C(C3CCC(C)CC3)CCN(C)C2)c(C(=O)O)s1 (stereo not drawn) [Example 177, 5-(3-Methyl-hex-1-ynyl)-3-[1-methyl-4-(4-methyl-cyclohexyl)-1,2,5,6-tetrahydro-pyridin-3-yl]-thiophene-2-carboxylic acid] | 3 to 10 µM | – |
